Results: patent US11414437B2, “Borate compound, and synthesis method therefor and uses thereof” (CHENGDU ORIGIN BIOTECHNOLOGY LIMITED COMPANY, priority 2017, dated 2022)
Read-outs that look alike come from different tables or passages of the source.

What was measured:
hERG potassium channel = hERG potassium channel (Homo sapiens, UniProt Q12809); experiment: Inhibition test of hERG potassium channel of heart (patch clamp); format: cell-based; details: for hERG current inhibition ratio % / IC50: n 3; for inhibitory effect on the hERG potassium channel (judged by general standard): judged by the standard of b169; for IC50: patch clamp
Sequence of hERG potassium channel (Q12809 whole entry): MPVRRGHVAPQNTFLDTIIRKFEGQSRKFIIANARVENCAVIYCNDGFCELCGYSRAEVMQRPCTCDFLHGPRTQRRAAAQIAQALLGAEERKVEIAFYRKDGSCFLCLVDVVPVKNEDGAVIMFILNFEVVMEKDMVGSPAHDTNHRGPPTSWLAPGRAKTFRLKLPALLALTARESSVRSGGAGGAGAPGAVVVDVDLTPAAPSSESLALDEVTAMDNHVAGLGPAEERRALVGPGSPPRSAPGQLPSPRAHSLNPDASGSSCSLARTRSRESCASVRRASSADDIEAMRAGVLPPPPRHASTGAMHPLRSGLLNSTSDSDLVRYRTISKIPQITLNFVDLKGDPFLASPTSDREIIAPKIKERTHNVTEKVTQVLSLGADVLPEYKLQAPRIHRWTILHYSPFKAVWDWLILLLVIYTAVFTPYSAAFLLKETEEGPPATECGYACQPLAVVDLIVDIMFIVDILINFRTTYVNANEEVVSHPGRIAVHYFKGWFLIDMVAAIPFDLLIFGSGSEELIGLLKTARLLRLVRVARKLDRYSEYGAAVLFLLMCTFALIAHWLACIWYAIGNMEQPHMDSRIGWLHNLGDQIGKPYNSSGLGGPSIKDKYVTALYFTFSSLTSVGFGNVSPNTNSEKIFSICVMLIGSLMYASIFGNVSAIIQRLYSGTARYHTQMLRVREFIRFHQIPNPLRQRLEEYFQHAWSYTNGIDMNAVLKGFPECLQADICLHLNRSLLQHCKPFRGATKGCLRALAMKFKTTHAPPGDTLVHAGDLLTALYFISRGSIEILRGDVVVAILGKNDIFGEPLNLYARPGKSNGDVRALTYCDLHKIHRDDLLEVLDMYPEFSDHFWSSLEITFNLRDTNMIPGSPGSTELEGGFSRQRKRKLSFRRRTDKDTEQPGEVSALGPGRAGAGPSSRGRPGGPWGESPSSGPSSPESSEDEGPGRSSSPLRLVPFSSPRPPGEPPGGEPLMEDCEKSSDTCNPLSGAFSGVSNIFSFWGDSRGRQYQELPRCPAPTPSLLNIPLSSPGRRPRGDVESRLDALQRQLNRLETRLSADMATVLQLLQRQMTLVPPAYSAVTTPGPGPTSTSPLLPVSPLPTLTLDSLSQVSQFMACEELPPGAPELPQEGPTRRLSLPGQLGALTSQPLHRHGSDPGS
Text: An inhibitory effect of the tested compound on hERG was judged by a general standard (Roche O. et al. ChemBioChem. 2002, 3:455-459.):
When a hERG semi-inhibitory concentration of a medicine exceeded about 30 times of a peak concentration thereof in blood, the concentration was in a relatively safe range (Redfernelt al, Cardiovascular Research, 58, 32-45 (2003)).

[1] = High-temperature and high-humidity accelerated stability test; format: physicochemical; details: compared with compounds 8l, MLN9708, MLN2238 of the prior art
Text: In addition, the compound of the present invention has better stability.

SD rats = tested on: SD rats
Text: The test was a single-dose toxicity test of SD rats by intragastric administration through mouth.

[2] = tested on: MM.1S human multiple myeloma SCID mouse transplanted tumor; experiment: Pharmacodynamic test, SCID mouse transplanted tumor model; format: in vivo; details: 0.0166 mmol/kg intragastric
Procedure: In the experiment, a SCID mouse transplanted tumor model of a human multiple myeloma cell line MM.1S was used. Specific modeling steps were as follows: frozen MM.1S cells were resuscitated and cultured in vitro according to a routine, and the cells were collected in a logarithmic growth phase, and diluted with PBS to form a tumor cell suspension with a concentration of 5×10^7/ml. […] About 1 week to 2 weeks after injection, the mass was palpable in axillary, and in vivo passage was performed when a tumor volume was larger than 500 mm^3. After the mouse was killed by a neck pulling method, a body surface was disinfected, skin was cut open, aseptic operation was performed, a tumor tissue was peeled off from an axillary subcutaneous tissue, a fibrous capsule was removed, and the tumor was taken out. The tumor was washed clean in normal saline, and then cut, and after removing the central necrotic part, the tumor tissue with good growth, reddish color and fish flesh shape was selected, then was cut into 1 mm×1 mm×1 mm small pieces, and placed in normal saline for later use. The cut tumor was placed in a mouth of a No. 18 trocar, iodized cotton was used to disinfect the side of the armpit close to the back of the mouse, and local inoculation was performed. The transplanted tumor used in the test was the 4th generation of in vivo passage. When the tumor volume of most SCID mice of in vivo passage was larger than 100 mm^3, the tumor volume was measured and calculated, and the mice were randomly grouped according to the tumor volume.
The administration mode was intragastric administration through mouth, with an administration volume of 10 ml/kg. The model control group was given the same volume of solvent intragastrically. The mice were all intragastrically administrated through mouth twice a week for a total of 5 times, i.e., the mice were administrated at the 1st, 5th, 8th, 12th and 15th days of the experiment, with a duration of 18 days.
Doses of different tested samples were equimolar, with a specific dose of 0.0166 mmol/kg; and the model control group was only given normal saline. The medicines were 8b and 8l, as well as Ixazomib Citrate (MLN9708) and Ixazomib (MLN2238).
On the 5th, 8th, 12th, 15th and 18th days after administration, a short diameter (a) and a long diameter (b) of the tumor of each mouse were measured with a vernier caliper, and the tumor volume was calculated according to a formula (a^2×b)/2. A relative tumor volume (RTV) was calculated based on the tumor volume measured and calculated, RTV=Vt/V0. V0 was the tumor volume at random grouping (i.e., d0) and Vt was the tumor volume at each measurement (i.e., dn). A relative tumor proliferation rate of an anti-tumor activity evaluation index was calculated according to the following formula: relative tumor proliferation rate T/C (%): […]
(Note: TRTV was a RTV of the treatment group; and CRTV was a RTV of the model control group. An evaluation standard of a curative effect was T/C %≤40%, and the medicine was effective when P<0.05 after statistical treatment).
After weighing and measuring the tumor on the 18th day, all animals were sacrificed, and the tumor was taken and weighed.

[3] = dose 2, 0.001662 mmol/kg single intragastric dose, 6 female rats, 14 days observation
[4] = dose 2, 0.001662 mmol/kg single intragastric dose, 6 male rats, 14 days observation
[5] = dose 4, 0.00277 mmol/kg single intragastric dose, 6 female rats, 14 days observation
[6] = dose 4, 0.00277 mmol/kg single intragastric dose, 6 male rats, 14 days observation

In the case of `CC(C)C[C@H](NC(=O)CNC(=O)c1cc(Br)ccc1Cl)B1OC(=O)c2ccccc2O1` [compound 8a], the “hERG current inhibition ratio %” value (hERG potassium channel; 0.3 μM) is reported as 1.47% ±, the “hERG current inhibition ratio %” value (hERG potassium channel; 1 μM) is reported as 5.53% ± and the “hERG current inhibition ratio %” value (hERG potassium channel; 3 μM) is reported as 4.36% ±. The “hERG current inhibition ratio %” value (hERG potassium channel; 10 μM) was 11.24% ±, the “hERG current inhibition ratio %” value (hERG potassium channel; 30 μM) was 7.86% ± and the “inhibitory effect on the hERG potassium channel (judged by general standard)” value (hERG potassium channel) was “no inhibitory effect”. The IC50 (hERG potassium channel) was over 30 µM and the “stability under high-temperature and high-humidity accelerated test condition” value [1] was “better stabilities”.

In the case of `CC(C)C[C@H](NC(=O)CNC(=O)c1cc(Br)ccc1Cl)B1OC(=O)[C@@H](c2ccccc2)O1` [compound 8b, 2-chloro-5-bromo-N-[2-({(1R)-3-methyl-1-[(5R)-4-oxo-5-phenyl-1,3,2-dioxaborolan-2-yl]butyl}amino)-2-oxoethyl]benzamide], the “Female Suvival” value (SD rats; dose 1, 0.001108 mmol/kg single intragastric dose, 6 female rats, 14 days observation) is reported as 6, the “Male Suvival” value (SD rats; dose 1, 0.001108 mmol/kg single intragastric dose, 6 male rats, 14 days observation) is reported as 6 and the “Female Death” value (SD rats; [3]) is reported as 0. For the same compound, the “Female Suvival” value (SD rats; [3]) was 6, the “Male Death” value (SD rats; [4]) was 0 and the “Male Suvival” value (SD rats; [4]) was 6. For the same compound, the “Female Suvival” value (SD rats; dose 3, 0.002216 mmol/kg single intragastric dose, 6 female rats, 14 days observation) was 6, the “Male Suvival” value (SD rats; dose 3, 0.002216 mmol/kg single intragastric dose, 6 male rats, 14 days observation) was 6 and the “Female Death” value (SD rats; [5]) was 2. The “Female Suvival” value (SD rats; [5]) was 4, the “Male Death” value (SD rats; [6]) was 0 and the “Male Suvival” value (SD rats; [6]) was 6. The maximum tolerance dose (SD rats; female rats, single intragastric dose) was 0.002216 mmol/kg, the “Female Death” value (SD rats; female, rat, in vivo, 0.001108 mmol/kg, 14 days) was 0 and the “Female Death” value (SD rats; female, rat, in vivo, 0.002216 mmol/kg, 14 days) was 0. For the same compound, the “Male Death” value (SD rats; male, rat, in vivo, 0.001108 mmol/kg, 14 days) was 0, the “Male Death” value (SD rats; male, rat, in vivo, 0.002216 mmol/kg, 14 days) was 0 and the “inhibitory effect on the hERG potassium channel (judged by general standard)” value (hERG potassium channel) was “no inhibitory effect”. For the same compound, the IC50 (hERG potassium channel) was over 30 µM, the “inhibition of tumor growth (in words)” value ([2]; stronger than 8l, MLN9708, MLN2238 (p<0.01)) was “significantly inhibited tumor growth” and the “Tumor weight” value ([2]; after the 18th day, X ± SD) was 0.028 ± 0.025 g. The “stability under high-temperature and high-humidity accelerated test condition” value [1] was “better stabilities”.
